Measurements from ChEMBL document CHEMBL3991601, “The target landscape of clinical kinase drugs” (Science, 2017).
Active and inactive are the calls of the source.

Key:
[1] = target: cAMP-dependent protein kinase type II-alpha regulatory subunit (Homo sapiens, UniProt P13861)
[2] = target: Tyrosine-protein kinase BTK (Homo sapiens, UniProt Q06187)
Ephrin type-B receptor 3 = target: T1, Ephrin type-B receptor 3 (Homo sapiens, UniProt P54753)
T1 sequence (P54753 whole entry): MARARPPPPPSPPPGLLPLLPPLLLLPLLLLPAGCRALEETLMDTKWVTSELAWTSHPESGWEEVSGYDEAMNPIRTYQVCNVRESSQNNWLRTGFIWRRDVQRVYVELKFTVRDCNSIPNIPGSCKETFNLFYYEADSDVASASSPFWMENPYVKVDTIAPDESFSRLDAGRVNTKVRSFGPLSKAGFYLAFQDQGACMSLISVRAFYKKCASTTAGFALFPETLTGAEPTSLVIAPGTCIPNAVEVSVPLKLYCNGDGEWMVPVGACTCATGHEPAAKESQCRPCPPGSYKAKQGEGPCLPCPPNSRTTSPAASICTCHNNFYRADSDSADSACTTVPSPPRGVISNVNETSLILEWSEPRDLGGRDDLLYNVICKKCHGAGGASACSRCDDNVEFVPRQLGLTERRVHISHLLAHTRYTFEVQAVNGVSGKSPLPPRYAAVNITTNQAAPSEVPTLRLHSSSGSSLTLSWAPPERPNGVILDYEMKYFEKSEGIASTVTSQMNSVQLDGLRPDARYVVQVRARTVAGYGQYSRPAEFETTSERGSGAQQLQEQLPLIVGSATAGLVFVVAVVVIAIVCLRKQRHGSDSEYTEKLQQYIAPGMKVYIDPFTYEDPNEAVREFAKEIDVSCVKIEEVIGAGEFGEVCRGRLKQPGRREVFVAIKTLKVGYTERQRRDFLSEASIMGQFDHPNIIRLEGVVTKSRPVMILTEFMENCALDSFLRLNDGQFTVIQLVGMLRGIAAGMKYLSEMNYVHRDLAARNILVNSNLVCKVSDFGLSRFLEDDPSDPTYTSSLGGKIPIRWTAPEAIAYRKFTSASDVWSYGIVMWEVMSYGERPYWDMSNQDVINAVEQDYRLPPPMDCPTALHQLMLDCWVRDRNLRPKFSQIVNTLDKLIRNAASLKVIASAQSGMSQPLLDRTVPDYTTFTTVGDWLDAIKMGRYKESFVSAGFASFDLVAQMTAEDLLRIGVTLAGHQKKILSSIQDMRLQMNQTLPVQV

[3] = target: T2, Serine/threonine-protein kinase TAO2 (Homo sapiens, UniProt Q9UL54)
T2 sequence (Q9UL54 whole entry): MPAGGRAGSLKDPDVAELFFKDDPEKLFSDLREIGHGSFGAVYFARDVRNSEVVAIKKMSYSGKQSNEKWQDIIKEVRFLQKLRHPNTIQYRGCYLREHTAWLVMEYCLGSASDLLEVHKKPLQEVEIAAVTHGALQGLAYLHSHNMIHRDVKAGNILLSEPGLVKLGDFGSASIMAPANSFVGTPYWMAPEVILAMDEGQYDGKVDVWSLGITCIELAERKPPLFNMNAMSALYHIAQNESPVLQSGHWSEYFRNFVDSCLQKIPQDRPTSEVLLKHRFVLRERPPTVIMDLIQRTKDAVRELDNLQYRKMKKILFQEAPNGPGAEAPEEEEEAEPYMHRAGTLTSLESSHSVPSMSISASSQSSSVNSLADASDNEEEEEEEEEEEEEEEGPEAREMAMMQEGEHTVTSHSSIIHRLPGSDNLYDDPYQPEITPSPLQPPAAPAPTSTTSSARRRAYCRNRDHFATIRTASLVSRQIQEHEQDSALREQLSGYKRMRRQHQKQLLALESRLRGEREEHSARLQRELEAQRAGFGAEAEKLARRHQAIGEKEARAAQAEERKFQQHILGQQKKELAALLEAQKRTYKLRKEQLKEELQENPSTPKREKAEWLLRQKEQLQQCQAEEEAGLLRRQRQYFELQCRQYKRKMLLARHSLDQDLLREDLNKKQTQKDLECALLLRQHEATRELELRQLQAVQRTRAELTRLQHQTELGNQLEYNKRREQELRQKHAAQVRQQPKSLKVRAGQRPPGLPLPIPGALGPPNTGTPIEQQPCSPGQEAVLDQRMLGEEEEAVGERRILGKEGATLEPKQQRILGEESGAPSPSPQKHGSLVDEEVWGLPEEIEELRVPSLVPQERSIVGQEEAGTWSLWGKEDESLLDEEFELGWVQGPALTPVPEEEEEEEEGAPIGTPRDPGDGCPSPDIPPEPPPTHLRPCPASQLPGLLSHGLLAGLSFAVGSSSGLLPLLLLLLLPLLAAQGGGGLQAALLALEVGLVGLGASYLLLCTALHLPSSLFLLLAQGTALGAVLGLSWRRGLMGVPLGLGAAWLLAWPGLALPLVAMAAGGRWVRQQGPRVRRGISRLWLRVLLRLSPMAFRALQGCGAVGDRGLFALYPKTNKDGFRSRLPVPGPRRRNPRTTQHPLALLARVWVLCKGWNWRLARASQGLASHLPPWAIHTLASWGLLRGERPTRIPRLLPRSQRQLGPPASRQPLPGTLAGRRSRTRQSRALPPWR

[4] = target: T3, Serine/threonine-protein kinase Nek2 (Homo sapiens, UniProt P51955)
T3 sequence (P51955 whole entry): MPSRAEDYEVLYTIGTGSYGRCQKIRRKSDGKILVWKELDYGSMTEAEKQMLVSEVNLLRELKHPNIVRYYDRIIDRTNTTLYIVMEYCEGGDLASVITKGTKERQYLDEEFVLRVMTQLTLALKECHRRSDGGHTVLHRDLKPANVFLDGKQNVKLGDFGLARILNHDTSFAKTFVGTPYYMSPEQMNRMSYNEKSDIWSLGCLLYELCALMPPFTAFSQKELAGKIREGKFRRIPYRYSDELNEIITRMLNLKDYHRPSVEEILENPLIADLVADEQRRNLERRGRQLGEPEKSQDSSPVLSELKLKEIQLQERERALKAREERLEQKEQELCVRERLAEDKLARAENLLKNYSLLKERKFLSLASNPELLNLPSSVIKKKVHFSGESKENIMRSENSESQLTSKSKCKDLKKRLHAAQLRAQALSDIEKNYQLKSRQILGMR

[5] = target: Myosin light chain kinase, smooth muscle (Homo sapiens, UniProt Q15746)
Chain of Myosin light chain kinase, smooth muscle (Q15746 whole entry): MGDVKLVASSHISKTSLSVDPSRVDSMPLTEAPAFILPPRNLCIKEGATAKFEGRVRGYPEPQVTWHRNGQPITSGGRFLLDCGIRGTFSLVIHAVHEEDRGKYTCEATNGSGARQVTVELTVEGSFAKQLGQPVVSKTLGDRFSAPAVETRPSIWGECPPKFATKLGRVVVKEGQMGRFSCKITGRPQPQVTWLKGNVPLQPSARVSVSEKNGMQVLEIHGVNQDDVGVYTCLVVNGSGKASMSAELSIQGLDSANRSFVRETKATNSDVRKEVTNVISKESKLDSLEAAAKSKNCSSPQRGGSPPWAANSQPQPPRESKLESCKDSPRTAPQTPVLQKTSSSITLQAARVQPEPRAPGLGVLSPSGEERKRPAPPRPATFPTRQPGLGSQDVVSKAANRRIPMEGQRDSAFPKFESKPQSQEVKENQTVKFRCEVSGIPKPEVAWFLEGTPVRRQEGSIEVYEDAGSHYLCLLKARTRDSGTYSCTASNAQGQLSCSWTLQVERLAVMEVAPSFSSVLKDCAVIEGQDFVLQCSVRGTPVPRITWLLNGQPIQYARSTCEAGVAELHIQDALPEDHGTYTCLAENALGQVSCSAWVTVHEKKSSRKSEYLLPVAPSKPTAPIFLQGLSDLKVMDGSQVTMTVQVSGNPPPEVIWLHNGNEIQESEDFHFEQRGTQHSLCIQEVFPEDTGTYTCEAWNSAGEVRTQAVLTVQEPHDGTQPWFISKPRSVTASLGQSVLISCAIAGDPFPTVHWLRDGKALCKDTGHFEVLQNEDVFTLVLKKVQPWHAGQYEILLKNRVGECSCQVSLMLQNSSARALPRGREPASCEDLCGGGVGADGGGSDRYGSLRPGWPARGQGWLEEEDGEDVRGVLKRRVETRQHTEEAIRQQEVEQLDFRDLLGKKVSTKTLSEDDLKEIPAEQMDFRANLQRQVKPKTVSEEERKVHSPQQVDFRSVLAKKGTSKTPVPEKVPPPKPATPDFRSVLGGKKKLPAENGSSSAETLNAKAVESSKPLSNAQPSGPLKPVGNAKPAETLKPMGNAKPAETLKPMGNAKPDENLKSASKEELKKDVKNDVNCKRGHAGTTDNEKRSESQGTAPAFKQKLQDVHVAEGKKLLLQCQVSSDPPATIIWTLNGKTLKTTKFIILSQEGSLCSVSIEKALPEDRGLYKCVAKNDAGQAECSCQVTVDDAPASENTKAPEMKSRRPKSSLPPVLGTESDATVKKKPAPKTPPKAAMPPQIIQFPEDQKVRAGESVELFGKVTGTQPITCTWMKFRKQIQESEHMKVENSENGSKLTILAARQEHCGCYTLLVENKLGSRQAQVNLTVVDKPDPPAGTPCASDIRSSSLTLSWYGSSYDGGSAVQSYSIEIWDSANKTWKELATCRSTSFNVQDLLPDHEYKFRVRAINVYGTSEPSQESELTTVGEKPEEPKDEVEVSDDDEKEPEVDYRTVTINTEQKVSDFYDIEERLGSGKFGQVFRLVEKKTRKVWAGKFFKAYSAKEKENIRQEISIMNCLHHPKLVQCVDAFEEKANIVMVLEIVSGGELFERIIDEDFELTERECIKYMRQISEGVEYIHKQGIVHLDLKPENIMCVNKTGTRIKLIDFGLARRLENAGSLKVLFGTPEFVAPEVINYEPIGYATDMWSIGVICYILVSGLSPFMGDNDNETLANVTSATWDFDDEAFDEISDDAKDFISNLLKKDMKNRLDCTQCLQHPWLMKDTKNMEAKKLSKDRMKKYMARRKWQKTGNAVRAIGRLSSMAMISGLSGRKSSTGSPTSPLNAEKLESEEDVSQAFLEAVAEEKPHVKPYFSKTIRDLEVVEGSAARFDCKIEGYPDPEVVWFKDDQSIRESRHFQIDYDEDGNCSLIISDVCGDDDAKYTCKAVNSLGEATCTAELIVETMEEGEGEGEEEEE
Also: in the data inactive means no Kd found up to 30 µM.

Chain of cAMP-dependent protein kinase type II-alpha regulatory subunit (P13861 whole entry): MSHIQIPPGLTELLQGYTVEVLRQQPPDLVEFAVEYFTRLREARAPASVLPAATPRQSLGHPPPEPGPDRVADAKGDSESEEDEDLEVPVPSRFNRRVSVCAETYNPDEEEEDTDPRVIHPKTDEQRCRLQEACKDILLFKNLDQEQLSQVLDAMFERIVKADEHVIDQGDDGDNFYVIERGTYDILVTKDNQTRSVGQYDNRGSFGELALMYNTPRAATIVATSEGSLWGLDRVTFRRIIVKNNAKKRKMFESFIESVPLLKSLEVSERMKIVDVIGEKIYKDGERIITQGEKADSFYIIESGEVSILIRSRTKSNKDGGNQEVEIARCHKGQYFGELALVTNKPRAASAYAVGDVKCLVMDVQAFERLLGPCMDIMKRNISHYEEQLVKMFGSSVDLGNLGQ
Chain of Tyrosine-protein kinase BTK (Q06187 whole entry): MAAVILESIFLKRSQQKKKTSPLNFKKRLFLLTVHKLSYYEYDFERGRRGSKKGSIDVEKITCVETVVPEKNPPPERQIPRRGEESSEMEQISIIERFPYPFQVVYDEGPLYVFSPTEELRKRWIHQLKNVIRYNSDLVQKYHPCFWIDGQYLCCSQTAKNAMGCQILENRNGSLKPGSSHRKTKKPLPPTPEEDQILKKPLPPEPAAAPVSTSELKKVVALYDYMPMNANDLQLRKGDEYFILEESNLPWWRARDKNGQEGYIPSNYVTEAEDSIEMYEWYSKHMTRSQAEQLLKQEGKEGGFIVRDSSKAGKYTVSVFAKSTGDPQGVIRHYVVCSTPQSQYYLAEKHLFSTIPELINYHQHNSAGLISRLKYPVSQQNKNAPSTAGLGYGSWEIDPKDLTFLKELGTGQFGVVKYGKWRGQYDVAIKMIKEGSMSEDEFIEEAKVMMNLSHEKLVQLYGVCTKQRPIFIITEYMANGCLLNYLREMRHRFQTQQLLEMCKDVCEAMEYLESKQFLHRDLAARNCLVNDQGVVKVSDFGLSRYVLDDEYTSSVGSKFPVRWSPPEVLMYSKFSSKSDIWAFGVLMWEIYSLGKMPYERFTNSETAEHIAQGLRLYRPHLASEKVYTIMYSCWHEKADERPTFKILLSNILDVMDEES

Kd [1]	Kd [2]	Kd (Ephrin type-B receptor 3)	Kd [3]	Kd [4]	Kd [5]	Structure (SMILES)
> 30 µM (inactive)	> 30 µM (inactive)	> 30 µM (inactive)	> 30 µM (inactive)	> 30 µM (inactive)	> 30 µM (inactive)	O=S(=O)(c1cccc2c(O)nccc12)N1CCCNCC1 [HYDROXYFASUDIL]
> 30 µM (inactive)	> 30 µM (inactive)	> 30 µM (inactive)	> 30 µM (inactive)	> 30 µM (inactive)	> 30 µM (inactive)	C[C@@H]1COC(Nc2ccc3ncnc(Nc4ccc(OCc5nccs5)c(Cl)c4)c3c2)=N1 [VARLITINIB]
> 30 µM (inactive)	> 30 µM (inactive)	> 30 µM (inactive)	> 30 µM (inactive)	> 30 µM (inactive)	> 30 µM (inactive)	CCN1CCN(Cc2ccc(Nc3ncc(F)c(-c4cc(F)c5nc(C)n(C(C)C)c5c4)n3)nc2)CC1 [ABEMACICLIB]
> 30 µM (inactive)	> 30 µM (inactive)	> 30 µM (inactive)	> 30 µM (inactive)	> 30 µM (inactive)	> 30 µM (inactive)	O=c1[nH]c([C@@H]2CCCN2)nc2c1oc1ccc(Cl)cc12
> 30 µM (inactive)	> 30 µM (inactive)	> 30 µM (inactive)	> 30 µM (inactive)	> 30 µM (inactive)	> 30 µM (inactive)	O=C(O)c1ccc2c(c1)nc(Nc1cccc(Cl)c1)c1ccncc12 [SILMITASERTIB]
> 30 µM (inactive)	> 30 µM (inactive)	> 30 µM (inactive)	> 30 µM (inactive)	> 30 µM (inactive)	> 30 µM (inactive)	CCc1cc2c(cc1N1CCC(N3CCOCC3)CC1)C(C)(C)c1[nH]c3cc(C#N)ccc3c1C2=O [ALECTINIB]
> 30 µM (inactive)	> 30 µM (inactive)	> 30 µM (inactive)	> 30 µM (inactive)	> 30 µM (inactive)	> 30 µM (inactive)	COc1cc2ncnc(Nc3ccc(F)c(Cl)c3)c2cc1NC(=O)/C=C/CN1CCCCC1 [DACOMITINIB ANHYDROUS]
> 30 µM (inactive)	> 30 µM (inactive)	> 30 µM (inactive)	> 30 µM (inactive)	> 30 µM (inactive)	> 30 µM (inactive)	C#Cc1cccc(Nc2ncnc3cc4c(cc23)OCCOCCOCCO4)c1 [ICOTINIB]
> 30 µM (inactive)	> 30 µM (inactive)	> 30 µM (inactive)	> 30 µM (inactive)	> 30 µM (inactive)	> 30 µM (inactive)	COc1ccc2c(OCc3nnc4ccc(-c5ccccc5)nn34)ccnc2c1 [AMG-208]
> 30 µM (inactive)	> 30 µM (inactive)	> 30 µM (inactive)	> 30 µM (inactive)	> 30 µM (inactive)	> 30 µM (inactive)	CC(C)(O)CC(=O)NCCn1ccc2ncnc(Nc3ccc(Oc4cccc(C(F)(F)F)c4)c(Cl)c3)c21 [TAK-285]
> 30 µM (inactive)	> 30 µM (inactive)	> 30 µM (inactive)	> 30 µM (inactive)	> 30 µM (inactive)	> 30 µM (inactive)	CNC(=O)c1cccc(-c2ccc3c(N4CCOC[C@@H]4C)nc(N4CCOC[C@@H]4C)nc3n2)c1 [VISTUSERTIB]
> 30 µM (inactive)	> 30 µM (inactive)	> 30 µM (inactive)	> 30 µM (inactive)	> 30 µM (inactive)	> 30 µM (inactive)	COc1cc2ncnc3c2cc1OCCCCCN(C)Cc1ccc(Br)cc1N3 [JNJ-26483327]
> 30 µM (inactive)	> 30 µM (inactive)	> 30 µM (inactive)	> 30 µM (inactive)	> 30 µM (inactive)	> 30 µM (inactive)	COc1cc2nccc(Oc3ccc(NC(=O)C4(C(=O)Nc5ccc(F)cc5)CC4)cc3)c2cc1OC [CABOZANTINIB]

Structure (SMILES)	Kd [1]	Kd [2]	Kd (Ephrin type-B receptor 3)	Kd [3]	Kd [4]	Kd [5]
N#CCNC(=O)c1ccc(-c2ccnc(Nc3ccc(N4CCOCC4)cc3)n2)cc1 [MOMELOTINIB]	> 30 µM (inactive)	> 30 µM (inactive)	> 30 µM (inactive)	> 30 µM (inactive)	> 30 µM (inactive)	> 30 µM (inactive)
COc1cc(F)c(F)c(Nc2ccc(I)cc2F)c1NS(=O)(=O)C1(C[C@H](O)CO)CC1 [REFAMETINIB]	> 30 µM (inactive)	> 30 µM (inactive)	> 30 µM (inactive)	> 30 µM (inactive)	> 30 µM (inactive)	> 30 µM (inactive)
CC1(COc2ccc3c(c2)ncn3-c2ccc3cccc(N4CCC(N)CC4)c3n2)COC1 [CRENOLANIB]	> 30 µM (inactive)	> 30 µM (inactive)	> 30 µM (inactive)	> 30 µM (inactive)	> 30 µM (inactive)	> 30 µM (inactive)
Cc1c(NC(=O)OC[C@@H]2COCCN2)cn2ncnc(Nc3ccc4c(cnn4Cc4cccc(F)c4)c3)c12 [AC-480]	> 30 µM (inactive)	> 30 µM (inactive)	> 30 µM (inactive)	> 30 µM (inactive)	> 30 µM (inactive)	> 30 µM (inactive)
COCCN1CCN(Cc2ccc(-c3n[nH]c4c3C(=O)c3c(NC(=O)NN5CCOCC5)cccc3-4)cc2)CC1 [RGB-286638]	> 30 µM (inactive)	> 30 µM (inactive)	> 30 µM (inactive)	> 30 µM (inactive)	> 30 µM (inactive)	> 30 µM (inactive)
Cc1c(Cn2c(C)nc3c(C(=O)O)cc(N4CCOCC4)cc32)cccc1C(F)(F)F [GSK-2636771]	> 30 µM (inactive)	> 30 µM (inactive)	> 30 µM (inactive)	> 30 µM (inactive)	> 30 µM (inactive)	> 30 µM (inactive)
NC[C@@](O)(c1ccc(Cl)cc1)c1ccc(-c2cn[nH]c2)cc1 [AT-13148]	> 30 µM (inactive)	> 30 µM (inactive)	> 30 µM (inactive)	> 30 µM (inactive)	> 30 µM (inactive)	> 30 µM (inactive)
